Results as given in ChEMBL document CHEMBL1144192, “Synthesis and activity of 1-(3-amino-1-phenylpropyl)indolin-2-ones: a new class of selective norepinephrine reuptake inhibitors” (Bioorg Med Chem Lett, 2008).

Key:
[1] = target: Sodium-dependent serotonin transporter (Homo sapiens, UniProt P31645); format: cell-based, JAR
Description: Inhibition of serotonin uptake at human SERT expressed in JAR cells

[2] = target: Sodium-dependent noradrenaline transporter (Homo sapiens, UniProt P23975)
Description: Inhibition of norepinephrine uptake at human NET expressed in MDCK cells

[3] = target: Sodium-dependent dopamine transporter (Homo sapiens) (UniProt Q01959); experiment: Displacement of [3H]WIN-35428 from human recombinant DAT expressed in CHO cells at 1 uM; format: cell-based
Sequence of Sodium-dependent dopamine transporter (Homo sapiens) (Q01959 whole entry): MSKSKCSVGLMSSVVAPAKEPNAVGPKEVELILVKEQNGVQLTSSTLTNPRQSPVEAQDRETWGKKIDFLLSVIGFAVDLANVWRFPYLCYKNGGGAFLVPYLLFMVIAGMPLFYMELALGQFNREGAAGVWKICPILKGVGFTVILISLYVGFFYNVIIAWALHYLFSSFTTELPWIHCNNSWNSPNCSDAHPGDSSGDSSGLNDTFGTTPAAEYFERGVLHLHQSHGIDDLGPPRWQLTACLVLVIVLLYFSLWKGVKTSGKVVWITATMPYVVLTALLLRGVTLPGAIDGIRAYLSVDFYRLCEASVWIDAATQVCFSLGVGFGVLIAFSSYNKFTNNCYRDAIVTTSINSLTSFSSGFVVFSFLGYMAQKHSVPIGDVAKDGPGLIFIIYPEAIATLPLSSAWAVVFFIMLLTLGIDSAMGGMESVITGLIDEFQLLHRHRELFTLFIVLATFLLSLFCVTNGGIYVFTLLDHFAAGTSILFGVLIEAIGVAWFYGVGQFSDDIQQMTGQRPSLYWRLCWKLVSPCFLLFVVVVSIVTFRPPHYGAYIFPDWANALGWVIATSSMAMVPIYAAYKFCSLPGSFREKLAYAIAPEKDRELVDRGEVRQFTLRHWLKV

Sequence of Sodium-dependent serotonin transporter (P31645 whole entry): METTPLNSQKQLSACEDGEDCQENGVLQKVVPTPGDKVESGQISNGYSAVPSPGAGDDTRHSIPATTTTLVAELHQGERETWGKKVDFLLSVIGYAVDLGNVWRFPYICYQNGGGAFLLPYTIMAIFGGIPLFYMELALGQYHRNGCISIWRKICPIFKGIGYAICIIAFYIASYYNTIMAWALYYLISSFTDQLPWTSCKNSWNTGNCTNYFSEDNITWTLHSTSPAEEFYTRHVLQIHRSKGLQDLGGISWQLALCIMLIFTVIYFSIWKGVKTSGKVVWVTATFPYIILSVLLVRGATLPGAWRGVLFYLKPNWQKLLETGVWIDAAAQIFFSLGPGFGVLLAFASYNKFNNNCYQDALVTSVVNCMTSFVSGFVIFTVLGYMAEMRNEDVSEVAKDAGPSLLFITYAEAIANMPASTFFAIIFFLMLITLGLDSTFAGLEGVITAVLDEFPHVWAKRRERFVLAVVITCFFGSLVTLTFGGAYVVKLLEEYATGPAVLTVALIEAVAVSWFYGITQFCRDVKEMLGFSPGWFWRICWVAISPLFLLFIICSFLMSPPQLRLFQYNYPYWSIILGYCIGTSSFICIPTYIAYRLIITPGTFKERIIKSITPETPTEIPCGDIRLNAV
Sequence of Sodium-dependent noradrenaline transporter (P23975 whole entry): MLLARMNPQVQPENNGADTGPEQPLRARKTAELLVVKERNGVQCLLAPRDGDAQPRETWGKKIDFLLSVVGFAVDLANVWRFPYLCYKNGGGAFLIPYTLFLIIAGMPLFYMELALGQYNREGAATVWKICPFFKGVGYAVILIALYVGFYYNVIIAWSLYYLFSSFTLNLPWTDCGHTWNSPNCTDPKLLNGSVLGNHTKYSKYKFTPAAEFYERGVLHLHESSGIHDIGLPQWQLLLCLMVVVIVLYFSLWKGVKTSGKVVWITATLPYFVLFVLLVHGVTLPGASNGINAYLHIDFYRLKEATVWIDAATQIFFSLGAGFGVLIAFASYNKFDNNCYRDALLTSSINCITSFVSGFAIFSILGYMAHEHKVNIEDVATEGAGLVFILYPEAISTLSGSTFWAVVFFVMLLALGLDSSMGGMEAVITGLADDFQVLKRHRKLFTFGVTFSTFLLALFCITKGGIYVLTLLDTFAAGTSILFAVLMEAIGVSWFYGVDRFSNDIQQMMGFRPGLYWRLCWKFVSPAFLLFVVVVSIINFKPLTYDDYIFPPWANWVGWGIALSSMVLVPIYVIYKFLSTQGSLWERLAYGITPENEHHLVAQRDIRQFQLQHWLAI

CNCC[C@H](c1cccc(Cl)c1)N1C(=O)C(C)(C)c2cccc(F)c21
IC50 [1]: 290 nM | IC50 [2]: 7 nM | Activity [3]: 10%

CNCC[C@H](c1cc(F)cc(Cl)c1)N1C(=O)C(C)(C)c2cccc(F)c21
IC50 [1]: > 3000 nM | IC50 [2]: 19 nM | Activity [3]: 0%

CNCC[C@H](c1cccc(F)c1)N1C(=O)C(C)(C)c2cccc(F)c21
IC50 [1]: 2550 nM | IC50 [2]: 14 nM | Activity [3]: 7%

CNCC[C@H](c1ccccc1)N1C(=O)C(C)(C)c2cccc(F)c21
IC50 [1]: > 3000 nM | IC50 [2]: 175 nM | Activity [3]: 3%

CNCC[C@H](c1cc(F)cc(F)c1)N1C(=O)C(C)(C)c2cccc(F)c21
IC50 [1]: 330 nM | IC50 [2]: 6 nM | Activity [3]: 0%

CNCCC(Oc1ccccc1OC)c1ccccc1 (configuration not stated) [NISOXETINE]
IC50 [1]: 277 nM

CNCCC(c1ccccc1)n1ccc2ccccc21 (configuration not stated)
IC50 [1]: 327 nM | IC50 [2]: 47 nM | Activity [3]: 44%

CNCC[C@@H](c1ccccc1)N1C(=O)C2(CCCCC2)c2ccccc21
IC50 [1]: 1750 nM | IC50 [2]: > 3000 nM | Activity [3]: 0%

CNCC[C@H](c1ccccc1)N1C(=O)C(C)(C)c2ccccc21
IC50 [1]: 1350 nM | IC50 [2]: 7 nM | Activity [3]: 0%

CNCC[C@@H](c1cccc(F)c1)N1C(=O)C2(CCCCC2)c2ccccc21
IC50 [1]: 1150 nM | IC50 [2]: > 3000 nM | Activity [3]: 1%

CNCC[C@H](c1cccc(F)c1)N1C(=O)C2(CCCCC2)c2ccccc21
IC50 [1]: > 3000 nM | IC50 [2]: 26 nM | Activity [3]: 20%

CNCC[C@H](c1ccccc1)N1C(=O)C2(CCCCC2)c2ccccc21
IC50 [1]: > 3000 nM | IC50 [2]: 53 nM | Activity [3]: 26%

CNCC[C@@H](c1ccccc1)N1C(=O)C(C)(C)c2ccccc21
IC50 [1]: 1950 nM | IC50 [2]: > 3000 nM | Activity [3]: 3%
